The values below come from patent publication US20100292295A1, “5-OXO-3-PYRROLIDINECARBOXAMIDE DERIVATIVES AS P2X7 MODULATORS” (GLAXO GROUP LIMITED, priority 2007, published 2010).

Several values for one entry are separate records, joined by “and”; a condition that tells them apart may be missing. Equal entries are not always repeated.

The target in assay [1] is T1, human recombinant P2X7 receptors (Homo sapiens, UniProt Q99572).
T1 construct: expressed in transfected cells
T1 sequence (Q99572 1-595): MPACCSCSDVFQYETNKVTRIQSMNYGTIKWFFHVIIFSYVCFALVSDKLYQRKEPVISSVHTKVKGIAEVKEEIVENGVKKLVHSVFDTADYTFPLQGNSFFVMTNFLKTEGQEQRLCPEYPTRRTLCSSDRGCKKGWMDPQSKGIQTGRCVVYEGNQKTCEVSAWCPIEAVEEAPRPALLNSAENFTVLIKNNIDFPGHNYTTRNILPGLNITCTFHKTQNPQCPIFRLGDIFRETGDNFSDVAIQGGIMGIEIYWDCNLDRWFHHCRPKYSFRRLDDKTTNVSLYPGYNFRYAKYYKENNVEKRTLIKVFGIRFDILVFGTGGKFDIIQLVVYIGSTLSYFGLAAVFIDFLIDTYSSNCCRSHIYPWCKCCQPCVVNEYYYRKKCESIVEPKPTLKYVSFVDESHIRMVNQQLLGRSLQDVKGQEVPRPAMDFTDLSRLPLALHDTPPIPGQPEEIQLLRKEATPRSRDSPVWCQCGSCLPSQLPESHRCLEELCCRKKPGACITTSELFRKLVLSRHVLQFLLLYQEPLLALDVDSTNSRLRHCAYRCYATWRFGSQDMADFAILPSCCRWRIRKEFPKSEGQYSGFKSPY
As to the kind of experiment: Ethidium Accumulation Assay. The assay is classed as cell-based. The conditions noted are these: blocking ATP (1 mM) responses; HEK293 cells expressing human P2X7; read-out: pIC50 in the Ethidium Accumulation Assay (or a slightly modified version thereof), human P2X7 receptor antagonist activity (converted). Here is the method:
Studies were performed using NaCl assay buffer of the following composition: 140 mM NaCl, 10 mM HEPES [4-(2-hydroxyethyl)-1-piperazine-1-ethanesulfonic acid], 5 mM N-methyl-D-glucamine, 5.6 mM KCl, 10 mM D-glucose, 0.5 mM CaCl2 (pH 7.4).
Human Embryonic Kidney (HEK) 293 cells, stably expressing human recombinant P2X7 receptors, were grown in poly-D-lysine pretreated 96 well plates for 18-24 hours. (The cloning of the human P2X7 receptor is described in U.S. Pat. No. 6,133,434, e.g. see Example 3 therein). The cells were washed twice with 350 μl of the assay buffer, before addition of 50 μl of the assay buffer containing the putative P2X7 receptor antagonist compound. (A small amount of dimethyl sulfoxide, for initially dissolving the compound, is optionally used and present in this 50 μl test compound sample.) The cells were then incubated at room temperature (19-21° C.) for 30 min before addition of ATP and ethidium (100 μM final assay concentration). The ATP concentration was chosen to be close to the EC80 for the receptor type and was 1 mM for studies on the human P2X7 receptor. Incubations were continued for 8 or 16 min and were terminated by addition of 25 μl of 1.3M sucrose containing 4 mM of the P2X7 receptor antagonist Reactive Black 5 (Aldrich). Cellular accumulation of ethidium was determined by measuring fluorescence (excitation wavelength of 530 nm and emission wavelength of 620 nm) from below the plate with a Canberra Packard Fluorocount (14 Station Road, Pangbourne, Reading, Berkshire RG8 7AN, United Kingdom) or a FlexStation II 384 from Molecular Molecular Devices (660-665 Eskdale Road, Wokingham, Berkshire RG41 5TS, United Kingdom). Antagonist pIC50 values for blocking ATP responses were determined using iterative curve fitting techniques.

Assay [2] has as its target T1, human recombinant P2X7 receptors. As to the kind of experiment: Fluorescent Imaging Plate Reader (FLIPR) Ca Assay. The assay is classed as cell-based. The conditions noted are these: blocking BzATP (60 μM) responses; HEK293 or U-2OS cells expressing human P2X7; read-out: pIC50 in the FLIPR Ca Assay (or a slightly modified version thereof), human P2X7 receptor antagonist activity (converted). How it is done: Studies were performed using NaCl assay buffer of the following composition for human P2X7: 137 mM NaCl; 20 mM HEPES [4-(2-hydroxyethyl)-1-piperazine-1-ethanesulfonic acid]; 5.37 mM KCl; 4.17 mM NaHCO3; 1 mM CaCl2; 0.5 mM MgSO4; and 1 g/L of D-glucose (pH 7.4).
Human Embryonic Kidney (HEK) 293 cells, stably expressing human recombinant P2X7 receptors, were grown in poly-D-lysine pretreated 384 well plates for 24 hours at […] (for a time sufficient for growth of a homogeneous layer of cells at the bottom of the wells). Alternatively, human osteosarcoma (U-20S) cells (commercially available), transduced with modified Baculovirus (BacMam) vector to deliver the gene coding for human P2X7 receptor (i.e. transiently expressing human recombinant P2X7 receptors), were grown in substantially the same conditions as for the HEK293 cells except that the well plates were not pre-treated with poly-D-lysine. (The cloning of the human P2X7 receptor is described in U.S. Pat. No. 6,133,434, e.g. see Example 3 therein). The cells were washed three times with 80 μl of assay buffer, loaded for 1 h at 37° C. with 2 μM Fluo-4-AM [4-(6-acetoxymethoxy-2,7-difluoro-3-oxo-9-xanthenyl)-4′-methyl-2,2′-(ethylenedioxy)dianiline-N,N,N′,N′-tetraacetic acid tetrakis(acetoxymethyl) ester], a Ca^2+-sensitive, cell-permeable, fluorescent dye (Tef Labs. Inc., 9415 Capitol View Drive, Austin, Tex. 78747, USA), washed three times again (3×80 μl), and left with 30 μl buffer before the addition of 10 μl of the assay buffer containing the putative P2X7 receptor antagonist compound, the compound being added at 4× the final assay concentration chosen. The solution of the putative P2X7 receptor antagonist compound was created by (i) dissolving the compound in dimethyl sulfoxide (DMSO) to create a stock solution in DMSO at 200× the final assay concentration, and (ii) mixing 1 μl of the stock solution of the compound in DMSO with 50 μl of the assay buffer to create a solution at about 4× the final assay concentration. The cells were then incubated at room temperature for 30 mins before addition (online, by FLIPR384 or FLIPR3 instrument (Molecular Devices, 1311 Orleans Drive, Sunnyvale, Calif. 94089-1136, USA)) of benzoylbenzoyl-ATP (BzATP) such as to create a 60 μM final assay concentration of BzATP (BzATP was added at 5× this final concentration). The BzATP concentration was chosen to be close to the EC80 for the receptor type. Incubations and reading were continued for 90 sec, and intracellular calcium increase was determined by measuring fluorescence (excitation wavelength of 488 nm and emission wavelength of 516 nm) from below the plate, with FLIPR charged-coupled device (CCD) camera. Antagonist pIC50 values for blocking BzATP responses were determined using iterative curve fitting techniques.

In the case of `CN1CC(C(=O)NCc2cccc(C(F)(F)F)c2Cl)CC1=O` (single isomer, unassigned) [5A stereoisomer 1], the IC50 in assay [1] was 158 to 200 nM.
Same read-out and setting: as for `CN1CC(C(=O)NCc2cccc(C(F)(F)F)c2Cl)CC1=O` (single isomer, unassigned) [5A stereoisomer 2], the figure is 39.8 to 50.1 nM.
`C[C@H](c1ccccc1)N1CC(C(=O)NCc2ccc(F)cc2Cl)CC1=O` (stereo partly drawn) [Example 1, N-[(2-chloro-4-fluorophenyl)methyl]-5-oxo-1-[(1R)-1-phenylethyl]-3-pyrrolidinecarboxamide]: the IC50 was under 3160 nM in assay [1] and at most 20000 nM in assay [2].
On to `O=C(NCc1ccc(F)cc1Cl)C1CC(=O)N(C2CC2)C1` (centres unmarked) [Example 2, N-[(2-Chloro-4-fluorophenyl)methyl]-1-cyclopropyl-5-oxo-3-pyrrolidinecarboxamide], for which the IC50 in assay [1] was under 3160 nM; in assay [2] it was at most 20000 nM.
Take `O=C(NCc1ccc(Cl)cc1Cl)C1CC(=O)N(C2CC2)C1` (centres unmarked) [Example 3, 1-Cyclopropyl-N-[(2,4-dichlorophenyl)methyl]-5-oxo-3-pyrrolidinecarboxamide]: the IC50 in assay [1] was < 3160 nM and 31.6 to 316 nM; in assay [2], at most 20000 nM.
Regarding `O=C(NCc1cccc(C(F)(F)F)c1Cl)C1CC(=O)N(C2CC2)C1` (centres unmarked) [Example 4, N-{[2-chloro-3-(trifluoromethyl)phenyl]methyl}-1-cyclopropyl-5-oxo-3-pyrrolidinecarboxamide], the IC50 in assay [1] was < 3160 nM and 31.6 to 316 nM; in assay [2], at most 20000 nM.
Consider `CN1CC(C(=O)NCc2cccc(C(F)(F)F)c2Cl)CC1=O` (centres unmarked) [Example 5, N-{[2-chloro-3-(trifluoromethyl)phenyl]methyl}-1-methyl-5-oxo-3-pyrrolidinecarboxamide], for which the IC50 in assay [1] is < 3160 nM and 31.6 to 316 nM and 50.1 to 63.1 nM; in assay [2], at most 20000 nM.
In the case of `CN1CC(C(=O)NCc2ccc(Cl)cc2Cl)CC1=O` (centres unmarked) [Example 6, N-[(2,4-dichlorophenyl)methyl]-1-methyl-5-oxo-3-pyrrolidinecarboxamide], the IC50 in assay [1] is < 3160 nM and 31.6 to 316 nM; in assay [2] it was at most 20000 nM.
Regarding `CCN1CC(C(=O)NCc2ccc(Cl)cc2Cl)CC1=O` (centres unmarked) [Example 7, N-[(2,4-dichlorophenyl)methyl]-1-ethyl-5-oxo-3-pyrrolidinecarboxamide], the IC50 in assay [1] is < 3160 nM and 31.6 to 316 nM; in assay [2] it was at most 20000 nM.
Take `CCN1CC(C(=O)NCc2cccc(C(F)(F)F)c2Cl)CC1=O` (centres unmarked) [Example 8, N-{[2-chloro-3-(trifluoromethyl)phenyl]methyl}-1-ethyl-5-oxo-3-pyrrolidinecarboxamide]: the IC50 in assay [1] is < 3160 nM and 31.6 to 316 nM; in assay [2], at most 20000 nM.
`CC(C)CN1CC(C(=O)NCc2cccc(C(F)(F)F)c2Cl)CC1=O` (centres unmarked) [Example 9, N-{[2-chloro-3-(trifluoromethyl)phenyl]methyl}-1-(2-methylpropyl)-5-oxo-3-pyrrolidinecarboxamide]: the IC50 in assay [1] is < 3160 nM and 31.6 to 316 nM; in assay [2], at most 20000 nM.
As for `CC(C)CN1CC(C(=O)NCc2ccc(Cl)cc2Cl)CC1=O` (centres unmarked) [Example 10, N-[(2,4-dichlorophenyl)methyl]-1-(2-methylpropyl)-5-oxo-3-pyrrolidinecarboxamide], the IC50 in assay [1] is < 3160 nM and 31.6 to 316 nM; in assay [2] it was at most 20000 nM.
Take `O=C(NCc1cccc(C(F)(F)F)c1Cl)C1CC(=O)N(Cc2ccccc2)C1` (centres unmarked) [Example 11, N-{[2-chloro-3-(trifluoromethyl)phenyl]methyl}-5-oxo-1-(phenylmethyl)-3-pyrrolidinecarboxamide]: the IC50 in assay [1] is < 3160 nM and 31.6 to 316 nM; in assay [2] it was at most 20000 nM.
For `O=C(NCc1ccc(Cl)cc1Cl)C1CC(=O)N(Cc2ccccc2)C1` (centres unmarked) [Example 12, N-[(2,4-dichlorophenyl)methyl]-5-oxo-1-(phenylmethyl)-3-pyrrolidinecarboxamide], the IC50 in assay [1] is < 3160 nM and 31.6 to 316 nM; in assay [2], at most 20000 nM.
